In patent US7449190B2 (priority 2002, dated 2008):

Key:
[1] = system: interaction of NP with VP35; format: biochemical, Ebola virus
NP = format: cell-based, Ebola virus
HIV gp160 = format: cell-based

CC(=O)N[C@H]1[C@@H](OCc2ccccc2)O[C@H](CO)[C@H](O)[C@@H]1O [benzyl 2-acetamido-2-deoxy-a-D-galactopyranoside]
effect in the in vitro transcription/translation system (NP synthesis or association of NP with VP35 and VP24) [1]: without any effect

OC[C@H]1NC[C@@H](O)[C@@H](O)[C@@H]1O [deoxymannojirimycin]
effect on NP migration (glycosylation) in NP-transfected 293 cells (NP): No effect

C[C@H]1CCC/C=C/[C@@H]2C[C@H](O)C[C@H]2[C@H](O)/C=C/C(=O)O1 [Brefeldin A]
effect in the in vitro transcription/translation system (NP synthesis or association of NP with VP35 and VP24) [1]: without any effect

CC(=O)N[C@H]1[C@@H](Oc2ccccc2)O[C@H](CO)[C@H](O)[C@@H]1O [phenyl N-acetyl-a-D-galactosaminide]
effect in the in vitro transcription/translation system (NP synthesis or association of NP with VP35 and VP24) [1]: without any effect

CC(=O)N[C@H]1[C@H](OCc2ccccc2)O[C@H](CO)[C@@H](O)[C@@H]1O [benzyl 2-acetamido-2-deoxy-b-D-glucopyranoside]
effect in the in vitro transcription/translation system (NP synthesis or association of NP with VP35 and VP24) [1]: without any effect

CCCCCCCCO[C@H]1O[C@H](CO)[C@@H](O)[C@H](O)[C@@H]1O [Manα1-OC8, mannose α1-O-octyl]
dose dependence of inhibition of NP/VP35 interaction [1]: dose-dependent
inhibition of NP/VP35 interaction when added after translation [1]: did not inhibit
inhibition of the interaction of NP with VP35 [1]: substantially reduced

CC(=O)N[C@H]1[C@@H](OCc2ccccc2)O[C@H](CO)[C@H](O)[C@@H]1O[C@@H]1O[C@H](CO)[C@H](O)[C@H](O)[C@H]1O [benzyl 2-acetamido-2-deoxy-3-O-b-D-galactopyranosyl-a-D-galactopyranoside]
effect in the in vitro transcription/translation system (NP synthesis or association of NP with VP35 and VP24) [1]: without any effect

O=C(N[C@H]1[C@H](OCc2ccccc2)O[C@H](CO)[C@@H](O)[C@@H]1O)OCc1ccccc1 [benzyl Z-b-D-glucosaminide]
effect in the in vitro transcription/translation system (NP synthesis or association of NP with VP35 and VP24) [1]: without any effect

O=C(N[C@H]1[C@@H](OCc2ccccc2)O[C@H](CO)[C@@H](O)[C@@H]1O)OCc1ccccc1 [benzyl Z-a-D-glucosaminide]
effect in the in vitro transcription/translation system (NP synthesis or association of NP with VP35 and VP24) [1]: without any effect

CCCCCCCCO[C@H]1O[C@H](COC(C)=O)[C@@H](OC(C)=O)[C@H](OC(C)=O)[C@@H]1OC(C)=O [AcManα1-OC8, acetylated Manα1-O-octyl]
inhibition of the interaction of NP with VP35 [1]: not seen

tunicamycin
effect on NP migration (glycosylation) in NP-transfected 293 cells (NP): No effect
synthesis of NP in NP-transfected 293 cells (NP): unaffected
expression of HIV gp160 (HIV gp160): abolished
